Legend:
[1] = Relative bioavailability of intranasal versus oral betahistine in humans, Example 6; format: in vivo; settings: human
Procedure: (Journal of Psychopharmacology, 2016, Vol. 30(3) 237-241). In brief, in this study, forty-eight healthy women were recruited and randomized to receive per os (i.e. orally) either betahistine 144 mg/day (48 mg t.i.d.) or matching placebo for 4 weeks. […] Study medication (betahistine or matching placebo) was administered at least 30 minutes prior to eating. On Day 8, blood samples of 6 mL each were collected at 8 am, and 30, 60, 150 and 300 minutes thereafter. Plasma concentrations of betahistine and its metabolite 2-PAA were determined by high-performance liquidy chromatography.

[2] = both, beagle, dog, in vivo, 1 h
Procedure: The safety and pharmacokinetic profile of intranasal betahistine was first evaluated in a single dose toxicology study in male and female beagle dogs (14-21 months of age, weight 8.2-11.8 kg). Both the vehicle and test article were delivered in a single dose via a nasal spray pump (Aptar Classic Line) with a delivery volume of 100 μL into both nostrils at total dose levels of 0 (vehicle), 4, 20 or 80 mg of betahistine dihydrochloride. Each treatment group was made up of 1 dog/sex.
Plasma concentrations were measured with liquid chromatographic tandem mass spectrometry (LC-MS/MS; SCIEX API 5000 for betahistine and SCIEX API 4000 for 2-pyridylacetic acid (2-PAA)) with a validated method. Betahistine-^13CD3 dihydrochloride and 2-PAA-D4 hydrochloride served as internal standards. The standard calibration range—using a plasma sample volume of 0.05 mL—for betahistine was 0.05 to 50 ng/mL and for 2-PAA it was 1 to 1000 ng/mL. The limit of quantitation was 0.05 ng/mL for betahistine and 1.0 ng/mL for 2-PAA.
In case of betahistine, the method involved a liquid-liquid extraction; in case of 2-PAA it involved protein precipitation. For betahistine, plasma samples were extracted under basic conditions with an organic solvent; the organic phase was dried and reconstituted in reconstitution solvent. Approximately 0.1 mL of the aqueous layer was transferred into polypropylene vials for LC-MS/MS analysis. For 2-PAA, plasma samples were precipitated with a mixture of organic solvents, supernatant was diluted and 0.12 mL was transferred into polypropylene vials for LC-MS/MS analysis. Sample analysis was conducted using reversed phase chromatography.

CNCCc1ccccn1 [betahistine]
bioavailability with intranasal administration higher than with oral administration [1]: 20-40 times | relative bioavailability fold factor ([1]; 40 mg intranasal vs. 48 mg per os): 41.1 × | relative bioavailability of oral vs. intranasal ([1]; Barak et al. oral AUC vs Example 3 intranasal AUC): approximately 2.4% | Rel. Bioavail. ([1]; intranasal 5 mg relative to oral 48 mg (Barak et al.)): 19.9 | Rel. Bioavail. ([1]; intranasal 10 mg relative to oral 48 mg (Barak et al.)): 24.2 | Rel. Bioavail. ([1]; intranasal 20 mg relative to oral 48 mg (Barak et al.)): 37.0 | Rel. Bioavail. ([1]; intranasal 40 mg relative to oral 48 mg (Barak et al.)): 41.1 | decline of plasma concentration [2]: more than 90%
